Test results reported in patent US11786479B2, “Nucleic acid nanocapsules for drug delivery and targeted gene knockdown” (University of Connecticut, priority 2017, dated 2023).

Assays:
[1] = tested on: HeLa cells; assay: MTS assay of PMA-treated HeLa cells with camptothecin-loaded MMP9-NANs; format: cell-based; settings: HeLa cells treated with PMA for 21 h
Method: In order to test the correlation between enzyme expression level within a live cell and the ability of the pep-NANs to be degraded, an additional assay was run in which HeLa cells were treated with phorbol 12-myristate 13-acetate (PMA), a known inducer of MMP9 expression in HeLa cells. Cells were incubated in serum-free media and treated with MMP9-NANs carrying camptothecin, a known apoptotic cancer drug. The toxicity of the drug loaded MMP9-NANs was evaluated using an MTS assay post 21 h PMA treatment, allowing enough time for MMP9 expression.

[2] = tested on: MCF-7 cells; assay: Confocal microscopy uptake of TYE-665 labeled DNAzyme in MCF-7 cells; format: cell-based; settings: 4 hours of incubation
Method: FIG. 15 illustrates cellular uptake and targeted gene knockdown by DNAzyme-NANs in MCF-7 cells. (A) Confocal microscopy of free DNAzymes labeled with TYE-665 dye transfected into MCF-7 cells and monitored for evidence of cellular uptake post 4 hours of incubation. (B) Confocal microscopy of DNz-NANs incubated with cells without transfection agents in which the DNAzyme on the NAN was also labeled with TYE-665 dye. […] All scale bars are 20 μm. (C) GATA-3 mRNA knockdown in MCF-7 cells. 250 nM DNz-NAN is capable of knocking down mRNA by 60% compared to untreated cells (N=3, p=0.0016). […] Error bars represent the standard error of the mean (N=3). (D) MCF-7 cells treated with 250 nM DNz-NANs, monitored for GATA-3 mRNA levels via qRT-PCR at times ranging from 4 to 48 hours of incubation.
Targeted cleavage is only possible if the DNz-NAN can disassemble and the DNz-surfactants can escape the endosomal compartments of the cell post endocytosis. To study the suitability of the DNz-NAN for cellular uptake and stability of its DNAzyme ligands in the cell, the DNz-NANs were first incubated in 10% fetal bovine serum to mimic exposure to cellular nucleases. […] 1 μM Dye-DNz-NANs were incubated with MCF-7 cells for 4 hr and monitored for evidence of uptake using confocal microscopy (FIGS. 15A and 15B). […]

[3] = tested on: GATA-3 mRNA truncate; assay: Kinetics cleavage assay (BHQ-mRNA fluorescence); format: biochemical; settings: 10 nM DNAzyme, mRNA truncate 10-200 nM, 37° C.
From the text: Kinetics Cleavage Assay: To determine the kinetics of the cleavage of GATA-3 by both the free and NAN-bound DNAzyme, a fluorescence-based assay was developed. A mRNA truncate corresponding to the cleavable sequence in GATA-3 mRNA was purchased (BioSearch Technologies). The truncate, herein referred to as BHQ-mRNA, was functionalized with a quencher (BHQ1) at the 3′ end and a fluorescein derivative (FAM) at the 5′ end. […] All fluorescence measurements were taken using a Horiba Jobin Yvon fluorometer and, unless otherwise stated, all samples were excited at 470 nm and measurements taken from 485 nm to […]. Samples were heated to their stated temperature using a Cary single cell peltier accessory. A solution of MgCl2 (10 mM), NaCl (100 mM), DNAzyme (10 nM) and H2O was prepared in a total volume 400 μL. The DNAzyme solution was heated to 70° C. for ten minutes prior to mixing. The sample was cooled to and held at 37° C. in the fluorometer and an initial background reading was taken. BHQ mRNA (10 nM, BioSearch Technologies) was spiked into the sample and the fluorescence monitored over 20 minutes. Additional measurements were taken at 25, 50, 75, and 200 nM concentrations of mRNA. This same procedure was repeated for the DNAzyme-NAN (10 nM). […] All non-linear fits for assigning Vmax values were determined using Kaleidagraph 4.5 graphing software.

[4] = tested on: GATA-3 mRNA truncate; assay: Cleavage assay of mRNA truncate, polyacrylamide gel; format: biochemical; settings: 37° C., 4 h
Method: Cleavage Assay. To test the activity of the GATA-3 DNAzyme, both free DNAzyme and 5 μM of ligated NANs were incubated with 0.5 μM GATA-3 mRNA truncate, both in the presence and absence of salts (10 mM MgCl2 and 100 mM NaCl). The different reactions were then run on an 8% denaturing polyacrylamide gel at 350 V for 30 minutes. The gel was scanned using both a 473 nm laser and a 532 nm laser.

[5] = tested on: mRNA truncate within the Au NP lipoplex; assay: mRNA cleavage across AuNP-templated lipid bilayer (synthetic lipoplex); format: biochemical; settings: equal concentrations of DNAzyme
From the text: A synthetic lipoplex system was designed to help monitor mRNA cleavage across a lipid bilayer (FIG. 16A). This construct was built using a gold nanoparticle (Au NP) as it can support a simplified lipid bilayer system (FIG. 16B). At the Au NPs surface, both a thiolated DNA molecule and a thiolated PEG-DSPE molecule were assembled (1:2 ratio). The DNA at the surface serves as an anchoring site for the annealing of the 19mer mRNA truncate. For this assay, the same mRNA truncate that was utilized in the kinetics assay was used. Therefore, unless cleaved, the molecule should have limited fluorescence as it has both the BHQ quencher and FAM modifications. This construct was further encapsulated with DOPE, to form a bilayer around the AuNPs, a procedure previously disclosed (Shen et al. Nanoscale, 2016, 8, 14821-14835.) These particles were then subjected to either the free DNAzyme or DNAzyme-surfactants, and the extent of mRNA cleavage evaluated as a function of increases observed in overall fluorescence. To mimic more closely the DNz-surfactant that would results from the DNz-NANs post degradation by endosomal esterases, a modified surfactant which presented only two alkynes was synthesized, attached the DNA anchor to it, and ligated DNAzymes to the anchor to form a DNAzyme-surfactant conjugate. […] All conditions had equal concentrations of DNAzyme.

**Q.** CCCCCCCCCCCCCC(=O)O[C@@H]1[C@@H](C)[C@@]2(O)[C@@H](C=C(CO)C[C@]3(O)C(=O)C(C)=C[C@@H]23)[C@@H]2C(C)(C)[C@]12OC(C)=O [PMA, phorbol 12-myristate 13-acetate] was tested. Which “no toxicity up to” value [1] did it give?
**A.** up to 150 ng/mL

**Q.** With “DNAzyme: GATA-3 targeting DNAzyme (hgd40), SEQ ID NO:2 (DNA GTGGATGGAGGCTAGCTACAACGAGTCTTGGAG; GATA-3 DNAzyme; misc_structure (1)..(1) monophosphorylated site)” as the compound, how does the “cellular uptake (TYE-665 signal)” value [2] read?
**A.** TYE signal could be observed in the perinuclear region of the cells

**Q.** And the Km [3]?
**A.** 0.059 µM

**Q.** And the “cleavage of truncated GATA-3 mRNA (gel)” value [4]?
**A.** complete cleavage

**Q.** What about the “access to and cleavage of mRNA truncate across lipid bilayer (fluorescence)” value [5] of the same compound?
**A.** limited change in signal
